From patent US20240002391A1, “4-ALKOXYPYRROLO[2,1-F][1,2,4]TRIAZINES AND PREPARATION AND USES THEREOF” (BioSplice Therapeutics, Inc., priority 2022, published 2024) come the findings set out here.

The assay addresses recombinant DYRK1A kinase (Homo sapiens (Human), UniProt Q13627). Briefly: DYRK1A kinase assay (Ser/Thr 18 peptide Z-lyte FRET). It counts as biochemical. Conditions: DYRK1A kinase activity, Z-lyte Ser/Thr 18 peptide, 15 μM ATP; method text calls the value IC50; read-out: EC50 (the source's name). Summed up: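 Steps: combine 0.25 μg/mL kinase, 15 μM ATP and 4 μM peptide with test compound; incubate 1 h at room temperature; add diluted development reagent for another hour; read coumarin and fluorescein emission at Ex 400. The emission ratio yields percent phosphorylation, from which IC50 is derived.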

`COc1nc(N[C@H]2CCN(C3(C#N)COC3)C[C@H]2F)nn2ccc(-c3ccc4nnn(CC(F)F)c4c3)c12` [Compound 769, 3-((3R,4S)-4-((5-(1-(2,2-Difluoroethyl)-1H-benzo[d][1,2,3]triazol-6-yl)-4-methoxypyrrolo[2,1-f][1,2,4]triazin-2-yl)amino)-3-fluoropiperidin-1-yl)oxetane-3-carbonitrile]: the IC50 came to 2.9 nM.
The value for `COc1nc(N[C@H]2CCN(C3COC3)C[C@H]2F)nn2ccc(-c3ccc4nnn(C(C)C)c4c3)c12` [Compound 688, N-((3R,4S)-3-fluoro-1-(oxetan-3-yl)piperidin-4-yl)-5-(1-isopropyl-1H-benzo[d][1,2,3]triazol-6-yl)-4-methoxypyrrolo[2,1-f][1,2,4]triazin-2-amine] was 2.3 nM.
Regarding `COc1nc(N[C@H]2CC[C@@H](OCCO)CC2)nn2ccc(-c3ccn4nccc4c3)c12` [Compound 13, 2-((cis-4-((4-Methoxy-5-(pyrazolo[1,5-a]pyridin-5-yl)pyrrolo[2,1-f][1,2,4]triazin-2-yl)amino)cyclohexyl)oxy)ethan-1-ol], the IC50 was found to be 5.5 nM.
For `COc1nc(N[C@H]2CC[C@@](C)(O)CC2)nn2ccc(-c3ccc4nccn4c3)c12` [Compound 55, cis-4-((5-(Imidazo[1,2-a]pyridin-6-yl)-4-methoxypyrrolo[2,1-f][1,2,4]triazin-2-yl)amino)-1-methylcyclohexan-1-ol], the IC50 stood at 6.7 nM.
The value for `COc1nc(N[C@@H]2CCN(C)CC2(F)F)nn2ccc(-c3ccc4nnn(CC(F)F)c4c3)c12` [Compound 777, (R)—N-(3,3-Difluoro-1-methylpiperidin-4-yl)-5-(1-(2,2-difluoroethyl)-1H-benzo[d][1,2,3]triazol-6-yl)-4-methoxypyrrolo[2,1-f][1,2,4]triazin-2-amine] was 1.6 nM; that for `COc1nc(N[C@H]2CC[C@H](C(C)(C)O)CC2)nn2ccc(-c3cnc4nccn4c3)c12` [Compound 242, 2-(trans-4-((5-(Imidazo[1,2-a]pyrimidin-6-yl)-4-methoxypyrrolo[2,1-f][1,2,4]triazin-2-yl)amino)cyclohexyl)propan-2-ol] was 4.4 nM.
The value for `COc1nc(NC2CCC(C)(C)CC2)nn2ccc(-c3cnc4nccn4c3)c12` [Compound 947, N-(4,4-Dimethylcyclohexyl)-5-(imidazo[1,2-a]pyrimidin-6-yl)-4-methoxypyrrolo[2,1-f][1,2,4]triazin-2-amine] was 2.2 nM.
The value for `Cc1nc2ccc(-c3ccn4nc(N[C@H]5CC[C@](C)(O)CC5)nc(OC5COC5)c34)cc2n1CC(F)F` [Compound 508, (1r,4r)-4-((5-(1-(2,2-Difluoroethyl)-2-methyl-1H-benzo[d]imidazol-6-yl)-4-(oxetan-3-yloxy)pyrrolo[2,1-f][1,2,4]triazin-2-yl)amino)-1-methylcyclohexan-1-ol] was 24.3 nM.
On to `[2H]C([2H])([2H])Oc1nc(N[C@H]2C[C@](C)(O)C2)nn2ccc(-c3ccc4nccnc4c3)c12` [Compound 331, trans-3-((4-(Methoxy-d3)-5-(quinoxalin-6-yl)pyrrolo[2,1-f][1,2,4]triazin-2-yl)amino)-1-methylcyclobutan-1-ol], for which the IC50 is 1.2 nM.
Next, `COc1nc(N[C@@H]2CCN(CCO)CC2(F)F)nn2ccc(-c3cc(F)c4nc(C)n(C(C)C)c4c3)c12` [Compound 549, (R)-2-(3,3-Difluoro-4-((5-(4-fluoro-1-isopropyl-2-methyl-1H-benzo[d]imidazol-6-yl)-4-methoxypyrrolo[2,1-f][1,2,4]triazin-2-yl)amino)piperidin-1-yl)ethan-1-ol]: 2.6 nM; `COc1nc(N[C@H]2CC[C@](C)(O)CC2)nn2ccc(-c3cc4ccncc4[nH]3)c12` [Compound 284, trans-4-((4-Methoxy-5-(1H-pyrrolo[2,3-c]pyridin-2-yl)pyrrolo[2,1-f][1,2,4]triazin-2-yl)amino)-1-methylcyclohexan-1-ol]: 235 nM; `COc1nc(N[C@H]2CCN(C)C[C@H]2F)nn2cc(F)c(-c3ccc4ncccc4c3)c12` [Compound 1057, 6-Fluoro-N-((3R,4S)-3-fluoro-1-methylpiperidin-4-yl)-4-methoxy-5-(quinolin-6-yl)pyrrolo[2,1-f][1,2,4]triazin-2-amine]: 1.7 nM.
Next, `CC[C@]1(O)CC[C@H](Nc2nc(OC)c3c(-c4ccc5nnn(CC(F)F)c5c4)ccn3n2)CC1` [Compound 727, (1r,4r)-4-((5-(1-(2,2-Difluoroethyl)-1H-benzo[d][1,2,3]triazol-6-yl)-4-methoxypyrrolo[2,1-f][1,2,4]triazin-2-yl)amino)-1-ethylcyclohexan-1-ol]: 2.8 nM; `COc1nc(N[C@@H]2CC[C@@H]2OC)nn2ccc(-c3cnc4nccn4c3)c12` [Compound 929, 5-(Imidazo[1,2-a]pyrimidin-6-yl)-4-methoxy-N-((1R,2S)-2-methoxycyclobutyl)pyrrolo[2,1-f][1,2,4]triazin-2-amine]: 19.8 nM; `COc1nc(N[C@H]2C[C@](C)(NC(C)=O)C2)nn2ccc(-c3ccc4nccnc4c3)c12` [Compound 334, N-(trans-3-((4-Methoxy-5-(quinoxalin-6-yl)pyrrolo[2,1-f][1,2,4]triazin-2-yl)amino)-1-methylcyclobutyl)acetamide]: 0.9 nM.
In the case of `COc1nc(N[C@H]2C[C@@H](OCCO)C2)nn2ccc(-c3ccc4nnn(CC(F)(F)F)c4c3)c12` [Compound 904, 2-(cis-3-((4-Methoxy-5-(1-(2,2,2-trifluoroethyl)-1H-benzo[d][1,2,3]triazol-6-yl)pyrrolo[2,1-f][1,2,4]triazin-2-yl)amino)cyclobutoxy)ethan-1-ol], the IC50 came to 1.8 nM.
Next, `COc1nc(N[C@@H]2CCN(C(C)=O)C[C@@H]2F)nn2ccc(-c3cc(F)c4nc(C)n(CC(F)F)c4c3)c12` [Compound 520, 1-((3S,4R)-4-((5-(1-(2,2-Difluoroethyl)-4-fluoro-2-methyl-1H-benzo[d]imidazol-6-yl)-4-methoxypyrrolo[2,1-f][1,2,4]triazin-2-yl)amino)-3-fluoropiperidin-1-yl)ethan-1-one]: 3 nM; `COc1nc(N[C@H]2CC[C@](C)(O)CC2)nn2cc(F)c(-c3cnc4nccn4c3)c12` [Compound 996, (1r,4r)-4-((6-Fluoro-5-(imidazo[1,2-a]pyrimidin-6-yl)-4-methoxypyrrolo[2,1-f][1,2,4]triazin-2-yl)amino)-1-methylcyclohexan-1-ol]: 2.9 nM; `COc1nc(NC2CCC3(CC2)CC3)nn2ccc(-c3cnc4nccn4c3)c12` [Compound 977, 5-(Imidazo[1,2-a]pyrimidin-6-yl)-4-methoxy-N-(spiro[2.5]octan-6-yl)pyrrolo[2,1-f][1,2,4]triazin-2-amine]: 1.8 nM.
The value for `COc1nc(N[C@H]2CCN(C3COC3)C[C@H]2F)nn2ccc(-c3cc(F)c4nc(C)n(CC(F)F)c4c3)c12` [Compound 161, 5-(1-(2,2-Difluoroethyl)-4-fluoro-2-methyl-1H-benzo[d]imidazol-6-yl)-N-((3R,4S)-3-fluoro-1-(oxetan-3-yl)piperidin-4-yl)-4-methoxypyrrolo[2,1-f][1,2,4]triazin-2-amine] was 3 nM.
Next, `COc1nc(N[C@@H]2CCNC[C@@H]2F)nn2ccc(-c3ccn4nccc4c3)c12` [Compound 29]: 9.2 nM; `COc1nc(NC2CCN(CC(F)(F)F)CC2)nn2ccc(-c3ccc4nccnc4c3)c12` [Compound 363, 4-Methoxy-5-(quinoxalin-6-yl)-N-(1-(2,2,2-trifluoroethyl)piperidin-4-yl)pyrrolo[2,1-f][1,2,4]triazin-2-amine]: 40.1 nM; `COc1nc(N[C@H]2CN(C)C[C@H]2F)nn2ccc(-c3ccc4nc(C)n(CC(F)F)c4c3)c12` [Compound 113, 5-(1-(2,2-Difluoroethyl)-2-methyl-1H-benzo[d]imidazol-6-yl)-N-((3S,4R)-4-fluoro-1-methylpyrrolidin-3-yl)-4-methoxypyrrolo[2,1-f][1,2,4]triazin-2-amine]: 3.3 nM.
Take `COc1nc(N[C@@H]2CCN(C3COC3)CC2(F)F)nn2ccc(-c3ccc4ncnn4c3)c12` [Compound 578, (R)-5-([1,2,4]Triazolo[1,5-a]pyridin-6-yl)-N-(3,3-difluoro-1-(oxetan-3-yl)piperidin-4-yl)-4-methoxypyrrolo[2,1-f][1,2,4]triazin-2-amine]: the IC50 came out at 8 nM.
`COc1nc(NC2CCC3(CC2)CN(C(C)=O)C3)nn2ccc(-c3ccn4nccc4c3)c12` [Compound 40, 1-(7-((4-Methoxy-5-(pyrazolo[1,5-a]pyridin-5-yl)pyrrolo[2,1-f][1,2,4]triazin-2-yl)amino)-2-azaspiro[3.5]nonan-2-yl)ethan-1-one]: the IC50 worked out at 1.6 nM.
Next, `COc1nc(N[C@H]2CC[C@@](C)(O)CC2)nn2ccc(-c3ccc4nccnc4c3)c12` [Compound 345, cis-4-((4-Methoxy-5-(quinoxalin-6-yl)pyrrolo[2,1-f][1,2,4]triazin-2-yl)amino)-1-methylcyclohexan-1-ol]: 3.7 nM.
On to `COc1nc(N[C@H]2C[C@@](C)(O)C2)nn2ccc(-c3cc4cnccc4[nH]3)c12` [Compound 281, cis-3-((4-Methoxy-5-(1H-pyrrolo[3,2-c]pyridin-2-yl)pyrrolo[2,1-f][1,2,4]triazin-2-yl)amino)-1-methylcyclobutan-1-ol], for which the IC50 stood at 6.6 nM.
`COc1nc(N[C@H]2C[C@](C)(C(=O)NC3CC3)C2)nn2ccc(-c3ccc4nnn(C)c4c3)c12` [Compound 218, trans-N-Cyclopropyl-3-((4-methoxy-5-(1-methyl-1H-benzo[d][1,2,3]triazol-6-yl)pyrrolo[2,1-f][1,2,4]triazin-2-yl)amino)-1-methylcyclobutane-1-carboxamide]: the IC50 stood at 2.9 nM.
The value for `COc1nc(N[C@H]2CC[C@@](C)(O)CC2)nn2ccc(-c3ccn4nccc4c3)c12` [Compound 19, cis-4-((4-Methoxy-5-(pyrazolo[1,5-a]pyridin-5-yl)pyrrolo[2,1-f][1,2,4]triazin-2-yl)amino)-1-methylcyclohexan-1-ol] was 14.1 nM.
